This assay addresses T1, Dimer of Gag-Pol polyprotein [489-587,Q496K] (Human immunodeficiency virus 1, UniProt P12497, Q496K).
T1 construct: 489-587
In words: Protease Inhibition Assay. The note with it: pH 5.5; 30 °C. Here is the method:
Assay of HIV protease inhibition was performed by peptide cleavage using the substrate Val-Ser-Gln-Asn-beta-naphthylalanine*Pro-Ile-Val. Products of the cleavage reaction were quantified by HPLC detection, and data were fit to nonlinear least squares equations for determination of steady-state Michaelis-Menten kinetics.

Each structure is given as a SMILES string.

`CC(C)(c1ncc(-c2cncc(Cl)c2)o1)N1CCN(C[C@@H](O)C[C@@H](Cc2ccccc2)C(=O)N[C@H]2c3ccccc3OC[C@H]2O)[C@H](C(=O)NCC(F)(F)F)C1` [(2S)-1-[(2S,4R)-4-benzyl-2-hydroxy-4-{[(3S,4S)-3-hydroxy-3,4-dihydro-2H-1-benzopyran-4-yl]carbamoyl}butyl]-4-{2-[5-(5-chloropyridin-3-yl)-1,3-oxazol-2-yl]propan-2-yl}-N-(2,2,2-trifluoroethyl)piperazine-2-carboxamide]: the midpoint of inhibition, the IC50, lay at 0.02 nM.
Consider `CC(C)(c1ccc(-c2ccncc2)o1)N1CCN(C[C@@H](O)C[C@@H](Cc2ccccc2)C(=O)N[C@H]2c3ccccc3OC[C@H]2O)[C@H](C(=O)NCC(F)(F)F)C1` [(2S)-1-[(2S,4R)-4-benzyl-2-hydroxy-4-{[(3S,4S)-3-hydroxy-3,4-dihydro-2H-1-benzopyran-4-yl]carbamoyl}butyl]-4-{2-[5-(pyridin-4-yl)furan-2-yl]propan-2-yl}-N-(2,2,2-trifluoroethyl)piperazine-2-carboxamide], for which the IC50 (in general, the midpoint of a concentration-inhibition curve) was found to be 0.05 nM.

For the origin of these results see BindingDB's records for doi:10.1016/s0960-894x(03)00474-8 (Merck Research Laboratories, 2003).
